In the experiment the target is T1, human heparanase (Homo sapiens, UniProt Q9Y251).
T1 construct: purchased Apollo Scientific, Cheshire UK
T1 sequence (Q9Y251 158-543 limits assumed): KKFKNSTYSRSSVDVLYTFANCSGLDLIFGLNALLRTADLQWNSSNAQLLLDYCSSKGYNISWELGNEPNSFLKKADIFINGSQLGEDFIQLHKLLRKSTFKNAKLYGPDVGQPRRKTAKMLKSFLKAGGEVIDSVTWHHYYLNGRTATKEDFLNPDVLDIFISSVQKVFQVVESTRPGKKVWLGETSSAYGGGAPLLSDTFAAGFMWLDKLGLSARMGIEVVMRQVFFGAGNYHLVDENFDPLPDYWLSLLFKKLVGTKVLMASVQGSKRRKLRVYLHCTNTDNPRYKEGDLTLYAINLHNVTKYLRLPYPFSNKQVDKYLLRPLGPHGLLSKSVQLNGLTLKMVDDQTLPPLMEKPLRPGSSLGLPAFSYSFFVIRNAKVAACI
T1 sequence (Q9Y251 36-109 limits assumed): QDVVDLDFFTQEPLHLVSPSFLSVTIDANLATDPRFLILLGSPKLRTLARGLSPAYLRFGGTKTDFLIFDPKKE
Kind of experiment: Heparanase inhibition assay (biotinylated heparan sulfate degradation, CBD-FGF binding, avidin-POD detection; modified Genway kit). As to conditions: recombinant human heparanase; for IC50: mean of three readings ± standard error, read-out: IC50 (n=3) against human heparanase. It counts as biochemical.

Structures are written as SMILES.

For `NC1CC(CO)C(OC2OC(CO)C(O)C(O)C2O)CC1O` (stereo not shown) [8a], the IC50 came to 1200 ± 300 µM.

For `NC1CC(CO)C(OC2OC(CO)C(O)C(O)C2O)CC1O` (stereo not shown) [8b], the IC50 stood at 800 ± 200 µM.

`NC1CC(CO)C(OC2OC(CO)C(O)C(O)C2O)CC1O` (stereo not shown) [8c]: the “Inhibition of heparanase (result in words)” value was “no significant activity” and the IC50 was over 10000 µM.

With `NC1CC(CO)C(OC2OC(CO)C(O)C(O)C2O)CC1O` (stereo not shown) [8d], the concentration for half-maximal inhibition (IC50) worked out at 800 ± 200 µM.

Turning to `CCCCOC1CC(O)C(N)CC1CO` (stereo not shown) [compound 11], the “Inhibition of heparanase (result in words)” value is given as “no significant inhibition” and the IC50 was over 10000 µM.

The record behind these values is paper PMC3832595, “Synthesis of a Pseudo-Disaccharide Library and Its Application to the Characterisation of the Heparanase Catalytic Site” (PLoS ONE, 2013).
